# Laboratory results as given in article PMC12638379, “An innovative approach to development of new pyrazolylquinolin-2-one hybrids as dual EGFR and BRAF^V600E inhibitors” (Molecular Diversity, 2025).
# Where two headings read alike, the source gives them in different places.
# Tested on: NCI 60 cancer cell lines
# Assay: NCI anticancer screening over a panel of 60 cancer cells, single concentration 10 µM
# Type: cell-based, human
# Settings: Homo sapiens, read-out: Growth inhibition (GI %)
# Procedure: Ten final compounds 4a–j and five intermediates 2a–e have been selected by the National Cancer Institute (NCI) for anticancer screening over a panel of 60 cancer cells that cover a variety of histological tissues, including the central nervous system, leukemia, lung, colon, kidney, ovary, breast, and prostate, using the protocol established by the National Cancer Institute (NCI). In a primary screening, each compound was screened at a concentration of 10 µM.
# Compounds 2a-e and 4a-j were selected by the National Cancer Institute (NCI) according to the protocol of the Compound Evaluation Branch of the National Cancer Institute, Bethesda, USA, for in vitro anticancer screening which refers in turn to apoptotic activity. The methodology of the NCI anticancer screening has been described in detail elsewhere (http://www.dtp.nci.nih.gov).
compound,measurement,setting,value
"CC(=O)c1cnn(-c2cc(=O)[nH]c3ccc(Cl)cc23)c1C [Compound 2d, 4-(4Aacetyl-5-methyl-1H-pyrazol-1-yl)-6-chloroquinolin-2(1H)-one]",inhibition at 10 µM,"A498, Renal cancer A498, 10 μM",< 5%
same,inhibition at 10 µM,"A549, Non-small cell lung cancer A549/ATCC, 10 μM",5.11%
same,inhibition at 10 µM,"ACHN, Renal cancer ACHN, 10 μM",7.6%
same,inhibition at 10 µM,"BT-549, Breast cancer BT-549, 10 μM",< 5%
same,inhibition at 10 µM,"CAKI-1, Renal cancer CAKI-1, 10 μM",15.1%
same,inhibition at 10 µM,"CCRF-CEM, Leukemia CCRF-CEM, 10 μM",8.99%
same,inhibition at 10 µM,"COLO 205, Colon cancer COLO 205, 10 μM",< 5%
same,inhibition at 10 µM,"DU-145, Prostate cancer DU-145, 10 μM",< 5%
same,inhibition at 10 µM,"EKVX, Non-small cell lung cancer EKVX, 10 μM",13.9%
same,inhibition at 10 µM,"HCC 2998, Colon cancer HCC-2998, 10 μM",< 5%
same,inhibition at 10 µM,"HCT-15, Colon cancer HCT-15, 10 μM",< 5%
same,inhibition at 10 µM,"HCT-116, Colon cancer HCT-116, 10 μM",< 5%
same,inhibition at 10 µM,"HL-60, Leukemia HL-60(TB), 10 μM",6.19%
same,inhibition at 10 µM,"HOP-62, Non-small cell lung cancer HOP-62, 10 μM",9.35%
same,inhibition at 10 µM,"HOP-92, Non-small cell lung cancer HOP-92, 10 μM",13.4%
same,inhibition at 10 µM,"HT-29, Colon cancer HT29, 10 μM",< 5%
same,inhibition at 10 µM,"Hs-578T, Breast cancer HS 578T, 10 μM",< 5%
same,inhibition at 10 µM,"IGROV-1, Ovarian cancer IGROV1, 10 μM",7.41%
same,inhibition at 10 µM,"K562, Leukemia K-562, 10 μM",5.5%
same,inhibition at 10 µM,"KM12, Colon cancer KM12, 10 μM",< 5%
same,inhibition at 10 µM,"LOX IMVI, Melanoma LOX IMVI, 10 μM",11.2%
same,inhibition at 10 µM,"Leukemia SR, 10 μM",< 5%
same,inhibition at 10 µM,"MCF7, Breast cancer MCF7, 10 μM",6.43%
same,inhibition at 10 µM,"MDA-MB-435, Melanoma MDA-MB-435, 10 μM",< 5%
same,inhibition at 10 µM,"MDA-MB-468, Breast cancer MDA-MB-468, 10 μM",< 5%
same,inhibition at 10 µM,"MOLT-4, Leukemia MOLT-4, 10 μM",8.77%
same,inhibition at 10 µM,"Malme-3M, Melanoma MALME-3M, 10 μM",13.3%
same,inhibition at 10 µM,"Melanoma M14, 10 μM",< 5%
same,inhibition at 10 µM,"NCI-H23, Non-small cell lung cancer NCI-H23, 10 μM",5.37%
same,inhibition at 10 µM,"NCI-H226, Non-small cell lung cancer NCI-H226, 10 μM",16.6%
same,inhibition at 10 µM,"NCI-H322M, Non-small cell lung cancer NCI-H322M, 10 μM",12.2%
same,inhibition at 10 µM,"NCI-H460, Non-small cell lung cancer NCI-H460, 10 μM",< 5%
same,inhibition at 10 µM,"NCI-H522, Non-small cell lung cancer NCI-H522, 10 μM",5.29%
same,inhibition at 10 µM,"NCI/ADR-RES, Ovarian cancer NCI/ADR-RES, 10 μM",5.32%
same,inhibition at 10 µM,"OVCAR-3, Ovarian cancer OVCAR-3, 10 μM",< 5%
same,inhibition at 10 µM,"OVCAR-4, Ovarian cancer OVCAR-4, 10 μM",< 5%
same,inhibition at 10 µM,"OVCAR-5, Ovarian cancer OVCAR-5, 10 μM",< 5%
same,inhibition at 10 µM,"OVCAR-8, Ovarian cancer OVCAR-8, 10 μM",< 5%
same,inhibition at 10 µM,"Prostate cancer PC-3, 10 μM",11%
same,inhibition at 10 µM,"RPMI-8226, Leukemia RPMI-8226, 10 μM",9.16%
same,inhibition at 10 µM,"RXF 393, Renal cancer RXF 393, 10 μM",< 5%
same,inhibition at 10 µM,"SF-268, CNS Cancer SF-268, 10 μM",< 5%
same,inhibition at 10 µM,"SF-295, CNS Cancer SF-295, 10 μM",5.21%
same,inhibition at 10 µM,"SF-539, CNS Cancer SF-539, 10 μM",14.4%
same,inhibition at 10 µM,"SK-MEL-2, Melanoma SK-MEL-2, 10 μM",< 5%
same,inhibition at 10 µM,"SK-MEL-5, Melanoma SK-MEL-5, 10 μM",5.89%
same,inhibition at 10 µM,"SK-MEL-28, Melanoma SK-MEL-28, 10 μM",< 5%
same,inhibition at 10 µM,"SK-OV-3, Ovarian cancer SK-OV-3, 10 μM",6.14%
same,inhibition at 10 µM,"SN12C, Renal cancer SN12C, 10 μM",15.2%
same,inhibition at 10 µM,"SNB-19, CNS Cancer SNB-19, 10 μM",7.35%
same,inhibition at 10 µM,"SNB-75, CNS Cancer SNB-75, 10 μM",< 5%
same,inhibition at 10 µM,"SW-620, Colon cancer SW-620, 10 μM",< 5%
same,inhibition at 10 µM,"T47D, Breast cancer T-47D, 10 μM",< 5%
same,inhibition at 10 µM,"TK-10, Renal cancer TK-10, 10 μM",< 5%
same,inhibition at 10 µM,"U-251, CNS Cancer U251, 10 μM",< 5%
same,inhibition at 10 µM,"UACC-62, Melanoma UACC-62, 10 μM",15.7%
same,inhibition at 10 µM,"UACC-257, Melanoma UACC-257, 10 μM",< 5%
same,inhibition at 10 µM,"UO-31, Renal cancer UO-31, 10 μM",35%
